The values that follow come from patent publication US8071768B2, “Alkylquinoline and alkylquinazoline kinase modulators” (Janssen Pharmaceutica, N.V., priority 2005, dated 2011).

The assay deals with T1, TrkB (Homo sapiens, UniProt Q16620).
T1 construct: purchased Upstate 14-507M
Nature of the assay: Trk B Fluorescence Polarization Kinase Assay. Conditions: uncertainty ±10%. The assay is classed as biochemical. Put shortly: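 The TrkB kinase reaction (50 nM enzyme, 20 ug/mL poly Glu4Tyr, 150 uM ATP, 5 mM MgCl2, 1% DMSO) ran 30 minutes at room temperature and was stopped with EDTA. Phosphorylation was detected by fluorescence-polarization displacement of a fluorescein phosphopeptide from an anti-phosphotyrosine antibody. IC50 came from a variable-slope sigmoidal fit of triplicates.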
(Polarisation of emitted light reports the rotation of a fluorescent probe.)

Molecules are shown by their SMILES.

T1 sequence (Q16620 32-822): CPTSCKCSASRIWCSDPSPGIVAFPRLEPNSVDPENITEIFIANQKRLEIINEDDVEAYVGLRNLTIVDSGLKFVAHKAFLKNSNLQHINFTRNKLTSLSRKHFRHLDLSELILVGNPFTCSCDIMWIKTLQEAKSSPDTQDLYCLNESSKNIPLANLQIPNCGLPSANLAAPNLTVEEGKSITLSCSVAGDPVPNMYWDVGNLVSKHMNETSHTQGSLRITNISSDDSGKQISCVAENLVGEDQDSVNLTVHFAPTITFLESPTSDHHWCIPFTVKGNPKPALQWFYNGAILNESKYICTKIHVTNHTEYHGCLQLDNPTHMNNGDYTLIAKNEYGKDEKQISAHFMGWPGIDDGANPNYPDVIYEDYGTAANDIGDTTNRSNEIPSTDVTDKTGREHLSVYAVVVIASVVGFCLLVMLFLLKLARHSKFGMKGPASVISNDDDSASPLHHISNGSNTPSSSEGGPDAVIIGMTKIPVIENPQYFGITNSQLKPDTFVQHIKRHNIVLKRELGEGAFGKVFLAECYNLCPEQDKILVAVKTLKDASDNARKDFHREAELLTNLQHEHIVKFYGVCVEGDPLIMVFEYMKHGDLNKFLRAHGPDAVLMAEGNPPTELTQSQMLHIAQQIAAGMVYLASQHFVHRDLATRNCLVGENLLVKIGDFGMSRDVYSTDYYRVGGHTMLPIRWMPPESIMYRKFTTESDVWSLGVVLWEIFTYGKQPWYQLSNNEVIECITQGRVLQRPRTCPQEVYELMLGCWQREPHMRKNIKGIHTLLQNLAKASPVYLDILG

For the molecule `CC(C)c1ccc(NC(=O)N2CCC(c3ncnc4cc(Cl)ccc34)CC2)cc1` [Compound 30, 4-(7-Chloro-quinazolin-4-yl)-piperidine-1-carboxylic acid (4-isopropyl-phenyl)-amide], the midpoint of inhibition, the IC50, lay at 0.7 µM.

Molecule `O=C(Nc1ccc(N2CCOCC2)cc1)N1CCC(c2ncnc3cc(OCCN4CCC[C@H]4CO)ccc23)CC1` [Compound 153, (S)-4-{7-[2-(2-Hydroxymethyl-pyrrolidin-1-yl)-ethoxy]-quinazolin-4-yl}-piperidine-1-carboxylic acid (4-morpholin-4-yl-phenyl)-amide] displayed an IC50 of more than 42 µM.

`CN1CCN(CCCOc2ccc3c(C4CCN(C(=O)Nc5ccc(OC6CCCC6)nc5)CC4)ncnc3c2)CC1` [Compound 82, 4-{7-[3-(4-Methyl-piperazin-1-yl)-propoxy]-quinazolin-4-yl}-piperidine-1-carboxylic acid (6-cyclopentyloxy-pyridin-3-yl)-amide] had an IC50 of 0.4 µM. This counts as sub-micromolar.

`COc1cc2ncnc(C3CCN(CC(=O)Nc4ccc(C(C)C)cc4)CC3)c2cc1OC` [Compound 9, 2-[4-(6,7-Dimethoxy-quinazolin-4-yl)-piperidin-1-yl]-N-(4-isopropyl-phenyl)-acetamide] returned an IC50 of 0.5 µM.

For `CC(C)Oc1ccc(NC(=O)N2CCC(c3ncnc4cc(OCCN5CCOCC5)ccc34)CC2)cc1` [Compound 37], the IC50 turned out to be 0.7 µM.

For the molecule `CC(=O)N1CCN(c2ccc3c(C4CCN(C(=O)Nc5ccc(N6CCOCC6)cc5)CC4)ncnc3c2)CC1` [Compound 141, 4-[7-(4-Acetyl-piperazin-1-yl)-quinazolin-4-yl]-piperidine-1-carboxylic acid (4-morpholin-4-yl-phenyl)-amide], the IC50 was found to be 15 µM. Compared with the last molecule, the IC50 is about 21-fold higher.

Molecule `CN1CCC(Oc2ccc3c(C4CCN(C(=O)Nc5ccc(N6CCOCC6)cc5)CC4)ncnc3c2)CC1` [Compound 127, 4-[7-(1-Methyl-piperidin-4-yloxy)-quinazolin-4-yl]-piperidine-1-carboxylic acid (4-morpholin-4-yl-phenyl)-amide] yielded an IC50 of 13.6 µM.

Regarding `O=C(Nc1ccc(N2CCOCC2)nc1)N1CCC(c2ncnc3cc(OCCN4CCOC4=O)ccc23)CC1` [Compound 91, 4-{7-[2-(2-Oxo-oxazolidin-3-yl)-ethoxy]-quinazolin-4-yl}-piperidine-1-carboxylic acid (6-morpholin-4-yl-pyridin-3-yl)-amide], the IC50 stood at 1.9 µM. Compared with the last molecule, the IC50 is about 7.2-fold lower.

Regarding `CN1CCN(c2ccc3c(C4CCN(C(=O)Nc5ccc(N6CCCC6)nc5)CC4)ncnc3c2)CC1` [Compound 160, 4-[7-(4-Methyl-piperazin-1-yl)-quinazolin-4-yl]-piperidine-1-carboxylic acid (6-pyrrolidin-1-yl-pyridin-3-yl)-amide], the IC50 came out at 6.45 µM.

In the case of `CN1CCN(CCCOc2ccc3c(C4CCN(C(=S)Nc5ccc(N6CCOCC6)nc5)CC4)ncnc3c2)CC1` [Compound 106, 4-{7-[3-(4-Methyl-piperazin-1-yl)-propoxy]-quinazolin-4-yl}-piperidine-1-carbothioic acid (6-morpholin-4-yl-pyridin-3-yl)-amide], the IC50 worked out at 16.3 µM.

The molecule `O=C1CCCN1CCCOc1ccc2c(C3CCN(C(=O)Nc4cnc(N5CCCC5)nc4)CC3)ncnc2c1` [Compound 90, 4-{7-[3-(2-Oxo-pyrrolidin-1-yl)-propoxy]-quinazolin-4-yl}-piperidine-1-carboxylic acid (2-pyrrolidin-1-yl-pyrimidin-5-yl)-amide] showed an IC50 of 0.3 µM. This IC50 lies about 54-fold lower than the previous one.

`CN(C)[C@@H]1CCN(c2ccc3c(C4CCN(C(=O)Nc5ccc(N6CCCC6)cc5)CC4)ncnc3c2)C1` [Compound 149, (R)-4-[7-(3-Dimethylamino-pyrrolidin-1-yl)-quinazolin-4-yl]-piperidine-1-carboxylic acid (4-pyrrolidin-1-yl-phenyl)-amide] came in with an IC50 of 7.26 µM. Compared with the last molecule, the IC50 is about 24-fold higher.

In turn, `COc1cc2ncnc(C3CCN(C(=O)Nc4ccc(N5CCCC5=O)cc4)CC3)c2cc1OC` [Compound 57, 4-(6,7-Dimethoxy-quinazolin-4-yl)-piperidine-1-carboxylic acid [4-(2-oxo-pyrrolidin-1-yl)-phenyl]-amide] gave an IC50 of 24.9 µM.

For `O=C(Nc1ccc(N2CCCC2)nc1)N1CCC(c2ncnc3cc(OCCN4CCOCC4)ccc23)CC1` [Compound 95, 4-[7-(2-Morpholin-4-yl-ethoxy)-quinazolin-4-yl]-piperidine-1-carboxylic acid (6-pyrrolidin-1-yl-pyridin-3-yl)-amide], inhibition was half-maximal at 3.4 µM (IC50).

As to `CS(=O)(=O)N1CCN(c2ccc3c(C4CCN(C(=O)Nc5ccc(N6CCOCC6)cc5)CC4)ncnc3c2)CC1` [Compound 142, 4-[7-(4-Methanesulfonyl-piperazin-1-yl)-quinazolin-4-yl]-piperidine-1-carboxylic acid (4-morpholin-4-yl-phenyl)-amide], the IC50 amounted to 17.4 µM.

Consider `COc1cc2ncnc(C3CCN(C(=O)Nc4ccc(N5CCCCCC5)cc4)CC3)c2cc1OC` [Compound 70, 4-(6,7-Dimethoxy-quinazolin-4-yl)-piperidine-1-carboxylic acid (4-azepan-1-yl-phenyl)-amide], for which the midpoint of inhibition, the IC50, lay at 2.7 µM.

Turning to `O=C(Nc1ccc(N2CCOCC2)cc1)N1CCC(c2ncnc3cc(N4CC[C@@H](O)C4)ccc23)CC1` [Compound 126, (R)-4-[7-(3-Hydroxy-pyrrolidin-1-yl)-quinazolin-4-yl]-piperidine-1-carboxylic acid (4-morpholin-4-yl-phenyl)-amide], it took 10.2 µM to reach half-maximal inhibition (IC50).

Regarding `O=C(Nc1ccc(N2CCCC2)cc1)N1CCC(c2ncnc3cc(OCCN4CCOC4=O)ccc23)CC1` [Compound 147, 4-{7-[2-(2-Oxo-oxazolidin-3-yl)-ethoxy]-quinazolin-4-yl}-piperidine-1-carboxylic acid (4-pyrrolidin-1-yl-phenyl)-amide], the IC50 is 2.73 µM. Against the preceding molecule, the IC50 is about 3.7-fold lower.

In turn, `CCN(CC)CC#Cc1ccc2ncnc(C3CCN(C(=O)Nc4ccc(OC(C)C)cc4)CC3)c2c1` [Compound 13, 4-[6-(3-Diethylamino-prop-1-ynyl)-quinazolin-4-yl]-piperidine-1-carboxylic acid (4-isopropoxy-phenyl)-amide] came in with an IC50 of 1.3 µM. Compared with the last molecule, the IC50 is about 2.1-fold lower.

As for `COc1cc2ncnc(C3CCN(C(=O)Nc4ccc(-c5ccco5)cc4)CC3)c2cc1OC` [Compound 59, 4-(6,7-Dimethoxy-quinazolin-4-yl)-piperidine-1-carboxylic acid (4-furan-2-yl-phenyl)-amide], the IC50 turned out to be 13.9 µM.

As for `CN1CCN(CCOc2ccc3c(C4CCN(C(=O)Nc5ccc(N6CCCC6)cc5)CC4)ncnc3c2)CC1` [Compound 157, 4-{7-[2-(4-Methyl-piperazin-1-yl)-ethoxy]-quinazolin-4-yl}-piperidine-1-carboxylic acid (4-pyrrolidin-1-yl-phenyl)-amide], the IC50 was determined as 7.05 µM. This IC50 is about 2-fold lower than that of the molecule before.

With `O=C(Nc1ccc(N2CCOCC2)cc1)N1CCC(c2ncnc3cc(OCCN4CCOC4=O)ccc23)CC1` [Compound 148, 4-{7-[2-(2-Oxo-oxazolidin-3-yl)-ethoxy]-quinazolin-4-yl}-piperidine-1-carboxylic acid (4-morpholin-4-yl-phenyl)-amide], 26.7 µM corresponded to half-maximal inhibition (IC50).

`COc1cc2ncnc(C3CCN(C(=O)Nc4ccc(NC(C)=O)cc4)CC3)c2cc1OC` [Compound 25, 4-(6,7-Dimethoxy-quinazolin-4-yl)-piperidine-1-carboxylic acid (4-acetylamino-phenyl)-amide] returned an IC50 of more than 42 µM.

In turn, `O=C(Nc1ccc(N2CCCC2)cc1)N1CCC(c2ncnc3cc(OCCN4CCC[C@H]4CO)ccc23)CC1` [Compound 152, (S)-4-{7-[2-(2-Hydroxymethyl-pyrrolidin-1-yl)-ethoxy]-quinazolin-4-yl}-piperidine-1-carboxylic acid (4-pyrrolidin-1-yl-phenyl)-amide] yielded an IC50 of 32.7 µM.

In turn, `O=C(Nc1ccc(N2CCCC2)nc1)N1CCC(c2ncnc3cc(OCCN4CCOC4=O)ccc23)CC1` [Compound 92, 4-{7-[2-(2-Oxo-oxazolidin-3-yl)-ethoxy]-quinazolin-4-yl}-piperidine-1-carboxylic acid (6-pyrrolidin-1-yl-pyridin-3-yl)-amide] came in with an IC50 of 1.3 µM.

In turn, `CN1CCN(CCCOc2ccc3c(C4CCN(C(=O)Nc5ccc(N6CCOCC6)c(F)c5)CC4)ncnc3c2)CC1` [Compound 81, 4-{7-[3-(4-Methyl-piperazin-1-yl)-propoxy]-quinazolin-4-yl}-piperidine-1-carboxylic acid (3-fluoro-4-morpholin-4-yl-phenyl)-amide] came in with an IC50 of more than 20 µM.

`CN1CCC(COc2ccc3c(C4CCN(C(=O)Nc5ccc(N6CCOCC6)cc5)CC4)ncnc3c2)CC1` [Compound 94, 4-[7-(1-Methyl-piperidin-4-ylmethoxy)-quinazolin-4-yl]-piperidine-1-carboxylic acid (4-morpholin-4-yl-phenyl)-amide] came in with an IC50 of more than 42 µM.

With `COc1cc2ncnc(C3CCN(C(=O)Nc4ccc(N5CCCCC5)cc4)CC3)c2cc1OC` [Compound 19, 4-(6,7-Dimethoxy-quinazolin-4-yl)-piperidine-1-carboxylic acid (4-piperidin-1-yl-phenyl)-amide], 2.7 µM corresponded to half-maximal inhibition (IC50). This counts as single-digit micromolar.

With `COc1cc2ncnc(C3CCN(C(=O)Nc4ccc(C5CCN(C(=O)OC(C)(C)C)CC5)cc4)CC3)c2cc1OC` [Compound 63, 4-(4-{[4-(6,7-Dimethoxy-quinazolin-4-yl)-piperidine-1-carbonyl]-amino}-phenyl)-piperidine-1-carboxylic acid tert-butyl ester], the IC50 was more than 42 µM.

Consider `O=C(Nc1ccc(N2CCOCC2)cc1)N1CCC(c2ncnc3cc(N4CCC[C@@H]4CO)ccc23)CC1` [Compound 132, (R)-4-[7-(2-Hydroxymethyl-pyrrolidin-1-yl)-quinazolin-4-yl]-piperidine-1-carboxylic acid (4-morpholin-4-yl-phenyl)-amide], for which the IC50 was more than 42 µM.

For `CN1CCC(COc2ccc3c(C4CCN(C(=O)Nc5ccc(N6CCCC6)cc5)CC4)ncnc3c2)CC1` [Compound 109, 4-[7-(1-Methyl-piperidin-4-ylmethoxy)-quinazolin-4-yl]-piperidine-1-carboxylic acid (4-pyrrolidin-1-yl-phenyl)-amide], the IC50 is 8.9 µM. That is a single-digit micromolar value.

Broadly, the IC50 is the concentration that gives 50% inhibition.
